Target: T1, plant Photosystem II (PSII), D1 protein QB site, pea (Lathyrus oleraceus, UniProt P06585)
T1 construct: gene psbA; native D1 within whole PSII complex (D1/D2 reaction centre) in isolated thylakoid membranes from 4-week-old pea leaves; no tag, not purified further
Assay: DPIP photoreduction (Hill reaction, […] nm) in isolated thylakoid membranes, Langmuir isotherm fit
Type: biochemical
Conditions: pH 7.2, 100 µM DPIP, 5 mM NH4Cl, 5 mM MgCl2, 15 µg/mL Chl, white light 500 µmol photons m^-2 s^-1, 10 min dark preincubation at room temperature, competitive with plastoquinone, read-out: DPIP Photoreduction / I50

SMILES	IC50 [nM]
CC(C)N1C(=O)c2ccccc2NS1(=O)=O [Bentazon]	6160
CN(C)C(=O)Nc1ccc(Cl)c(Cl)c1 [Diuron]	71.8
CSc1nnc(C(C)(C)C)c(=O)n1N [Metribuzin]	156
CCNc1nc(Cl)nc(NC(C)(C)C)n1 [Terbuthylazine]	110
